Measurements as given in patent US7910584B2, “3-spiroindolin-2-one derivatives, preparation and therapeutic use thereof” (Sanofi-Aventis, priority 2004, dated 2011).

Target: T1, recombinant human vasopressin V2 receptors (Homo sapiens, UniProt P30518)
T1 construct: expressed in transfected cells; host or cells: CHO cell line (plasma membranes)
Test: In vitro binding assay, [3H]-AVP displacement on plasma membranes
Conditions: membranes from tissues or CHO cell line expressing recombinant human V2 receptors; 3.5 nM [H3]-AVP; 45 minutes at 25° C.; read-out: IC50 (concentration of product that inhibits 50% of the specific binding)
Experimental: They were in particular tested with regard to their effects.
The affinity of the compounds of the invention for vasopressin V2 receptors was measured in in vitro binding assays, as described in J. Pharmacol. Exp. Ther., (2002), 300, pp. 1122-1130.
Plasma membranes (approximately 20 μg/ml) originating from tissues or the CHO cell line expressing recombinant human vasopressin V2 receptors are incubated for 45 minutes at 25° C. in 200 μl of TRIS-HCl buffer (50 mM; pH 8.2) containing 2 mM of MgCl2, 1 mM of EDTA, 0.1% of BSA, 1 mg/ml of bacitracin and 3.5 nM of [H^3]-AVP. The reaction is stopped by filtration and washing over GF/B filters. The nonspecific binding is determined in the presence of 1 μM of AVP. The compounds of the invention, dissolved beforehand at the concentration of 10^−2 M in DMSO, are tested in a dilution range.
For each concentration, the results are expressed as percentage inhibition of specific binding. An IC50 (concentration of product that inhibits 50% of the specific binding) is determined for each of the products using the “RS1 binding” program (BBN Domain, Cambridge, Mass.).

T1 sequence (P30518 whole entry): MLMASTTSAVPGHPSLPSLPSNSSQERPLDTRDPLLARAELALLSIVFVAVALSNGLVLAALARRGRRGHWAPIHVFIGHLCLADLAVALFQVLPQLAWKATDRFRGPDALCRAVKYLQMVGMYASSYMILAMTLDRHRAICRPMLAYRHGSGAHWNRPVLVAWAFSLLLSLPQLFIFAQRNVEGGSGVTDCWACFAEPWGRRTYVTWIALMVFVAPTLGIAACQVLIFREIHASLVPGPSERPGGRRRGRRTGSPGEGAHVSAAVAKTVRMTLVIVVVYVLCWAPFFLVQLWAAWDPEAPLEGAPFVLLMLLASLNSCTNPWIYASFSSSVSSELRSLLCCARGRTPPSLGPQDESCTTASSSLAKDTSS

IC50: ~7.3 nM
Structure (SMILES): CCOc1ccc2c(c1)C1(CCC(OCCN3CCOCC3=O)CC1)C(=O)N2S(=O)(=O)c1ccc(C(=O)NC(C)(C)C)cc1OC (stereo not shown)
